In patent US5202130A, “Suppression of eczematous dermatitis by calcium transport inhibition” (The Johns Hopkins University, priority 1989, dated 1993):
Like-named read-outs stand apart in the source and are kept apart here.

How the values were obtained:
[1] = tested on: suppressor cells (CD4 or CD8 T cell determinants); assay: Phenotype of the suppressor cells, spleen cells treated in vitro with mab and complement before transfer; format: in vivo, mice of the strain AB (H-2^k)
Description: The spleens from mice treated with lanthanum and control animals were removed and homogenized by gently pressing the tissue through a steel mesh. […] Thereafter the cells were washed 2 times and incubated for 20 minutes at 4° C. with a rat anti-mouse Ig mab (ATCC, Rockville, USA). The cells were washed 2 times and incubated for 30 minutes at 37° C. with normal rabbit serum, diluted 1:5 as a source of complement. The serum used was not toxic to the cells. Thereafter the cells were washed 2 times and 10^8 viable cells were injected intravenously into native syngeneic mice.
The non-parametric Mann-Whitney test was used.
To investigate the phenotype of this suppressor cell, spleen cells were harvested from mice which were previously sensitized with DNFB on LaCl3 pretreated skin. […]

[2] = tested on: formaldehyde allergy; assay: Prevention of inflammatory reaction by topical La^3+, patch test with formaldehyde; format: in vivo, human (patient); settings: 2% in hydrophilic ointment base, read at 72 hours
Description: In this example, a patient with known allergy against for formaldehyde was challenged with formaldehyde in the presence of lanthanum chloride. Lanthanum chloride was used at a 2% concentration (2 g/100 ml) in hydrophilic ointment base, USP, and the lanthanum was incorporated in the ointment at the time of exposure. The results of the patch test were read at 72 hours, and a photograph was taken. […] There was a very slight decrease of inflammation due to the presence of the ointment base itself. This slight decrease as a result of the use the emollient only is a well known phenomenon. […] The effect of the lanthanum is clearly much greater than that of the ointment base alone.

[3] = tested on: atopic dermatitis affecting the hands; assay: Treatment of atopic dermatitis affecting the hands with lanthanum chloride ointment; format: in vivo, human (patients); settings: 5% ointment twice daily, 1-3 months; five patients
Description: Five patients with atopic dermatitis affecting the hands were treated with topical lanthanides. In this protocol individuals were dispensed a 5% lanthanum chloride ointment and were instructed to use a thin film on the hands twice daily immediately before work and immediately upon returning home from work. These individuals did so for a period of 1-3 months.

[4] = tested on: contact sensitization against DNCB; assay: Effect of topically administered La^3+ on sensitization against DNCB (ear swelling); format: in vivo, BALB/c mice
Description: Mice were treated with 50 microliters of 10% La^3+ chloride mixture (500 mg La^3+ chloride dissolved in 5 ml of 95% ethanol:glycerin [4:1 ratio]) applied for five consecutive days to the shaved back surface. Control animals were treated with the ethanol:glycerin vehicle only. On days 6 and 7, 25 microliters of 1.0% DNCB solution was applied to the shaved dorsal back surface. In mice pretreated with topical La^3+, DNCB was applied only to the shaved dorsal skin that had previously been treated with La^3+.

[5] = format: in vivo, human (patients with atopic dermatitis)
Description: To date, eight patterns with endogenous eczema (atopic dermatitis) have been treated with topical lanthanides. In three individuals, atopic dermatitis affected the majority of the body surface. These three patients were treated with a single total body application of lanthanum chloride (5% in hydrophilic ointment base). Blood levels of lanthanum were measured by atomic absorption spectroscopy, over a period of 1/2 to 24 hours after the single application.

[6] = tested on: DNFB contact sensitivity; assay: Transfer of hyporesponsiveness to DNFB by spleen cells of mice sensitized on LaCl3 treated skin; format: in vivo, mice of the strain AB (H-2^k)
Description: (§1) Inbred mice of the strain AB (H-2^k) reared in the breeding colony of the Humboldt University Berlin were used. The mice were fed with water and standard pellets ad libitum. During all procedures (sensitization, challenge, measurement) the animals were anesthetized by an intraperitoneal injection of hexobarbital sodium salt. The number of animals per experimental group (n) is presented.
The mice were anesthesized in an area of 2.0×2.0 cm on their abdomen, abdominal skin was shaved with a blade, and a 20 microliters of a 0.5% solution of 2,4-dinitro-1-fluorobenzene (DNFB) (Serva, Heidelberg, F.R.G.) in acetone were applied to this site. This procedure was repeated one day later.
The challenge reaction was induced 5 days after the first sensitization by an application of 0.2% DNFB in acetone on the dorsal surfaces of both ears. The ear thickness was measured before and 24 hours after challenge using an engineers micrometer (Peacock, Japan).
(§2) 10 g LaCl3 ×7H2 O (Laborchemie Apolda, G.D.R.) was dissolved in 10 ml water and incorporated into unguentum alcoholum lanae aquosum. The previously shaved sensitization site on the abdominal skin of the mice was treated at the days numbered -1, 0, and +1 with this ointment. At the days 0 and +1, when contact sensitization with DNFB was performed, the ointment was applied on hour after sensitization, so that the penetration of the DNFB was not influenced by the ointment.
The spleens from mice treated with lanthanum and control animals were removed and homogenized by gently pressing the tissue through a steel mesh. The cell were suspended in RPMI 1640 medium (SIFIN, Berlin, G.D.R.) and were washed three times by centrifugation at 300 g for 10 minutes and resuspended. The treatment with monoclonal antibodies (mab) was performed by incubating the cells for 20 minutes with the L3T4 mab (clone GK 1.5, ATCC, Rockville, USA) or the anti-Lyt 2 mab (clone 53-6, ATCC, Rockville, USA) in a final dilution of 1:50. Thereafter the cells were washed 2 times and incubated for 20 minutes at 4° C. with a rat anti-mouse Ig mab (ATCC, Rockville, USA). […]

[7] = tested on: delayed hypersensitivity to ovalbumin; assay: Antigenic specificity of the suppressor cells (ovalbumin response of recipients); format: in vivo, mice of the strain AB (H-2^k)
Description: as §1, §2
The spleens from mice treated with lanthanum and control animals were removed and homogenized by gently pressing the tissue through a steel mesh. […]
Other groups of mice were sensitized by injection 50 microliters of ovalbumin (Serva, Heidelberg, F.R.G.) emulsified in 20 microliters of complete Freund's adjuvant (Difco laboratories, Detroit, U.S.A.) subcutaneously into the base of the tail. […] One day later foodpad swelling was measured. […]

[8] = tested on: contact allergic dermatitis; assay: Patch tests in seven patients with known contact allergic dermatitis, overall; format: in vivo, human (patients)
Description: Seven patients with known contact allergic dermatitis were recruited. One had hypersensitivity to nickel, four of these individuals had allergies against formaldehyde, and two had known allergies against chromium sulfate. Three patch test were applied in each individual. Patient number 1 was exposed to nickel sulfate (5% weight per volume) in hydrophilic ointment base USP. "Results" refers to the amount of erythema in the patch test sites at 48 hours, judged on a scale of 0-3+, where 3+ represents maximum erythema and inflammation.

## [Cl][La]([Cl])[Cl] [lanthanum chloride, Lanthanum chloride]
[1]; DNFB-sensitized mice
  suppressor T cell population induced: a splenic CD4-CD8+ suppressor T cell population is induced
[1]; spleen cells of LaCl3-treated, DNFB-sensitized donors, in vitro treatment as labelled (LaCl3 line = no treatment of cells), n 5
  % Suppression: 100%
[1]; ± SD, spleen cells of LaCl3-treated, DNFB-sensitized donors, in vitro treatment as labelled (LaCl3 line = no treatment of cells), no cell transfer 50 ± 4.2, n 5
  Ear thickness: 28 ± 2.1 10^-2 mm
[2]
  inflammation in patch test: almost totally abolished
[3]
  fissuring, oozing, and puritis: decrease
  hand dermatitis: significant improvement
[4]; 24 h post-challenge, control 0.12±0.02 mm, p=0.028
  ear swelling: 0.05±0.02 mm
[4]; FIG. 2, topical, vs. non-La-treated animals, p<0.01, challenge 25 μl of 0.25% DNCB
  decrease in ear thickness 24 h post-challenge: 58%
[4]; statement follows negative control (challenged without prior sensitization) 0.03±0.01 mm
  difference in ear swelling between pretreated and control animals: not statistically significant
[4]; topical, 50 microliters of 10% La^3+ chloride, five days
  reduction in the contact hypersensitivity response: 58%
[5]
  penetration of the stratum corneum of the epidermis: does penetrate the stratum corneum of the epidermis
[5]; human, in vivo, topical or ocular
  time of peak blood level: approximately 4 hours
[5]; human, in vivo, topical or ocular, 0.5 h
  Blood Concentration of La^+ 3: 4 ± 2.8 ng/mL
[5]; human, in vivo, topical or ocular, 1 h
  Blood Concentration of La^+ 3: 12.3 ± 2.3 ng/mL
[5]; human, in vivo, topical or ocular, 2 h
  Blood Concentration of La^+ 3: 12.16 ± 3 ng/mL
[5]; human, in vivo, topical or ocular, 4 h
  Blood Concentration of La^+ 3: 30.9 ± 2.2 ng/mL
[5]; human, in vivo, topical or ocular, 12 h
  Blood Concentration of La^+ 3: 14 ± 1.6 ng/mL
[5]; human, in vivo, topical or ocular, 24 h
  Blood Concentration of La^+ 3: 11 ± 3.6 ng/mL
[5]; in vivo
  blood level relative to levels known to produce toxicity in animals and humans: well below those levels known to produce toxicity in animals and humans
[6]; recipients of cells from donors DNFB-sensitized on LaCl3 treated skin, n 7
  % Suppression: 88%
[6]; topical LaCl3 treatment of donors
  transfer of hyporesponsiveness to DNFB by spleen cells: transferred the hyporesponsiveness to DNFB to native syngeneic recipients
[6]; ± SD, recipients of cells from donors DNFB-sensitized on LaCl3 treated skin, n 7, p 0.01, no cell transfer 46 ± 4.8
  Ear thickness: 29 ± 2.4 10^-2 mm
[7]; transferred cells from mice sensitized with DNFB on LaCl3-treated skin
  footpad swelling response of the recipients to ovalbumin: not affected
[7]; ± SD, DNFB sensitization on LaCl3 treated skin, recipients immunized with ovalbumin, n 8, NS, no cell transfer .68 ± .12
  Ear thickness (footpad swelling per footnote): .68 ± .09 10^-2 mm
[8]; 5% lanthanum chloride at the time of exposure to known allergen
  suppression of inflammation in all individuals: significant suppression of inflammation
[8]; seven patients, known sensitizing agents
  suppression of inflammation upon challenge: dose dependent effect in suppression of inflammation
